From US20230085307A1, “PYRIDAZINONE COMPOUND AND HERBICIDE” (NISSAN CHEMICAL CORPORATION, priority 2019, published 2023) come the findings set out here.

In one assay the test system is chickweed. Nature of the assay: Test Example 5: herbicidal effect by foliage application, plastic box (Table 20, symbol P). It is filed as in vivo, common chickweed (Stellaria media). The conditions noted are these: evaluated three weeks after application. Summed up:
(§1)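 Sow seeds spot-wise in sterilized diluvial soil; cover with ~1.5 cm soil. Grow 14 days in greenhouse, 25° C. to 30° C. Spray foliage with emulsion diluted to predetermined amount. Rate effect after 3 weeks.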

Another assay deals with redroot pigweed. Description: Test Example 5: herbicidal effect by foliage application, plastic box (Table 20, symbol N). It is filed as in vivo, redroot pigweed (Amaranthus retroflexus). The conditions noted are these: evaluated three weeks after application. Put shortly:
as §1

A further assay concerns Japanese bulrush. Description: Test Example 2: herbicidal activity, application during weed generation under submerged conditions (Table 17, symbol B). Format: in vivo, Japanese bulrush (Schoenoplectus juncoides). The conditions noted are these: AAH 320 g/ha; application during weed generation, submerged conditions. How it is done:
(§2) [Test Example 2] Herbicidal Activity Test by Application during Weed Generation under Submerged Conditions After alluvial soil was placed into 1/10000 are of Wagner pot, water was poured and mixed to form a submerged condition having a water depth of 4 cm. Seeds of late watergrass, Japanese bulrush, and oval-leafed pondweed were sowed in a mixed manner in the aforementioned pot, and the pot was placed in a greenhouse at 25° C. to 30° C. for growth of the plants. When late watergrass, Japanese bulrush, and oval-leafed pondweed were grown to one leaf stage to two leaf stage, the emulsion agent of the compound of the present invention prepared according to Formulation Example 2 was diluted with water so as to achieve a predetermined herbicide amount, and the diluted emulsion agent was applied to the surface of the water. Three weeks after the herbicide application, the effect of the herbicide on each plant was evaluated according to the criteria of Test Example 1.

Another assay concerns Italian ryegrass. Description: Test Example 5: herbicidal effect by foliage application, plastic box (Table 20, symbol K). The settings on record: evaluated three weeks after application. It is filed as in vivo, Italian ryegrass (Lolium multiflorum). Summed up: as §1
The next assay has as its system oval-leafed pondweed. Nature of the assay: Test Example 2: herbicidal activity, application during weed generation under submerged conditions (Table 17, symbol C). Format: in vivo, oval-leafed pondweed (Monochoria vaginalis). The conditions noted are these: AAH 320 g/ha; application during weed generation, submerged conditions. Here is the method: as §2
Assay [1] has as its system barnyard grass. Nature of the assay: Test Example 3: herbicidal effect by foliage application, Wagner pot (Table 18, symbol H). Format: in vivo, barnyard grass (Echinochloa crus-galli). Summed up:
(§3)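 Plants were sown in alluvial soil held under 0.1–0.5 cm standing water and grown 14 days in a greenhouse at 25–30 °C. An emulsifiable formulation, water-diluted to the set dose, was then sprayed onto the foliage, and effects were scored three weeks later using previously defined criteria.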

Assay [2] deals with barnyard grass. Nature of the assay: Test Example 5: herbicidal effect by foliage application, plastic box (Table 20, symbol H). Format: in vivo, barnyard grass (Echinochloa crus-galli). The settings on record: evaluated three weeks after application. Put shortly: as §1
Another assay relates to wild oat. Description: Test Example 5: herbicidal effect by foliage application, plastic box (Table 20, symbol I). It is filed as in vivo, wild oat (Avena fatua). The conditions noted are these: evaluated three weeks after application. Put shortly: as §1
Another assay has as its system blackgrass. Nature of the assay: Test Example 5: herbicidal effect by foliage application, plastic box (Table 20, symbol J). The settings on record: evaluated three weeks after application. Format: in vivo, blackgrass (Alopecurus myosuroides). Put shortly:
as §1

The next assay concerns late watergrass. Description: Test Example 2: herbicidal activity, application during weed generation under submerged conditions (Table 17, symbol A). Format: in vivo, late watergrass (Echinochloa oryzicola). The settings on record: AAH 320 g/ha; application during weed generation, submerged conditions. Put shortly:
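Steps: fill Wagner pots with alluvial soil; add water to give 4 cm depth; sow the species mixed; grow under glass at 25–30° C.; at 1–2 leaves apply water-diluted emulsion formulation to the water surface at a fixed herbicide amount; score after 3 weeks.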

In a further assay the test system is southern crabgrass. Description: Test Example 5: herbicidal effect by foliage application, plastic box (Table 20, symbol F). Format: in vivo, southern crabgrass (Digitaria ciliaris). The settings on record: evaluated three weeks after application. Summed up: as §1
The test system of the next assay is Chinese sprangletop. Description: Test Example 3: herbicidal effect by foliage application, Wagner pot (Table 18, symbol D). Format: in vivo, chinese sprangletop (Leptochloa chinensis). Put shortly:
as §3

The test system of a further assay is rice flat sedge. Nature of the assay: Test Example 3: herbicidal effect by foliage application, Wagner pot (Table 18, symbol E). Format: in vivo, rice flat sedge (Cyperus iria). Put shortly:
as §3

The test system of the next assay is lambsquarters. Description: Test Example 5: herbicidal effect by foliage application, plastic box (Table 20, symbol O). The settings on record: evaluated three weeks after application. Format: in vivo, lambsquarters (Chenopodium album). Summed up:
as §1

Another assay relates to persian speedwell. Description: Test Example 5: herbicidal effect by foliage application, plastic box (Table 20, symbol R). It is filed as in vivo, Persian speedwell (Veronica persica). The conditions noted are these: 320 g/ha, evaluated three weeks after application. Summed up: as §1
In another assay the test system is velvetleaf. Nature of the assay: Test Example 5: herbicidal effect by foliage application, plastic box (Table 20, symbol M). Format: in vivo, velvetleaf (Abutilon theophrasti). The conditions noted are these: evaluated three weeks after application. Put shortly:
as §1

Another assay has as its system windgrass. Description: Test Example 5: herbicidal effect by foliage application, plastic box (Table 20, symbol L). Format: in vivo, windgrass (Apera spica-venti). The conditions noted are these: evaluated three weeks after application. Summed up:
as §1

In a further assay the test system is green foxtail. Nature of the assay: Test Example 5: herbicidal effect by foliage application, plastic box (Table 20, symbol G). Format: in vivo, green foxtail (Setaria viridis). The settings on record: evaluated three weeks after application. Summed up: as §1
The mark [3] stands for this setting: foliage application, AAH 320 g/ha.
The mark [4] stands for this setting: amount of applied herbicide 320 g/ha.
Setting [5] is: 320 g/ha, foliage application after 14-day growth.

As for `Cc1nn(C)c(=O)c(-c2c(-c3ccc(OCc4ccccc4)cc3)sc3ccc(F)cc23)c1OCc1ccccc1` [2-065], in the assay on chickweed (foliage application, 320 g/ha), the “herbicidal effect on P: chickweed” value was 0 (Herbicidal rate of 5% or less (almost no effect)). The “herbicidal effect on N: redroot pigweed” value in the assay with redroot pigweed (foliage application, 320 g/ha) is 3 (Herbicidal rate of 40% or more and less than 70%). Besides, the “herbicidal effect rating, B: Japanese bulrush” value (“herbicidal effect rating, B” below) with Japanese bulrush is 0 (Herbicidal rate of 5% or less (almost no effect)). Moreover, the “herbicidal effect on K: Italian ryegrass” value with Italian ryegrass (foliage application, 320 g/ha) is 0 (Herbicidal rate of 5% or less (almost no effect)). Further, the “herbicidal effect rating, C: oval-leafed pondweed” value (shortened to “herbicidal effect rating, C”) with oval-leafed pondweed is recorded as 0 (Herbicidal rate of 5% or less (almost no effect)). Further, the “herbicidal effect on H (barnyard grass), rating 0-5” value with barnyard grass [1] (320 g/ha) was 3 (Herbicidal rate of 40% or more and less than 70%). Also, the “herbicidal effect on H: barnyard grass” value in the assay on barnyard grass [2] (foliage application, 320 g/ha) is 0 (Herbicidal rate of 5% or less (almost no effect)). Moreover, the “herbicidal effect on I: wild oat” value with wild oat (foliage application, 320 g/ha) is listed as 0 (Herbicidal rate of 5% or less (almost no effect)). Further, the “herbicidal effect on J: blackgrass” value with blackgrass (foliage application, 320 g/ha) is reported as 0 (Herbicidal rate of 5% or less (almost no effect)). Also, the “herbicidal effect rating, A: late watergrass” value in the assay with late watergrass was 3 (Herbicidal rate of 40% or more and less than 70%). In addition, the “herbicidal effect on F: southern crabgrass” value in the assay on southern crabgrass (foliage application, 320 g/ha) is 0 (Herbicidal rate of 5% or less (almost no effect)). The “herbicidal effect on D (Chinese sprangletop), rating 0-5” value with Chinese sprangletop (320 g/ha) was 3 (Herbicidal rate of 40% or more and less than 70%). Besides, in the assay on rice flat sedge (320 g/ha), the “herbicidal effect on E (rice flat sedge), rating 0-5” value is 3 (Herbicidal rate of 40% or more and less than 70%). The “herbicidal effect on O: lambsquarters” value in the assay on lambsquarters (foliage application, 320 g/ha) is 1 (Herbicidal rate of 5% or more and less than 20%). For the same molecule, in the assay on persian speedwell (foliage application), the “herbicidal effect on R: persian speedwell” value is on record as 0 (Herbicidal rate of 5% or less (almost no effect)). For the same molecule, in the assay with velvetleaf (foliage application, 320 g/ha), the “herbicidal effect on M: velvetleaf” value was 0 (Herbicidal rate of 5% or less (almost no effect)). In the assay on windgrass (foliage application, 320 g/ha), the “herbicidal effect on L: windgrass” value is 0 (Herbicidal rate of 5% or less (almost no effect)). For the same molecule, in the assay with green foxtail (foliage application, 320 g/ha), the “herbicidal effect on G: green foxtail” value is given as 0 (Herbicidal rate of 5% or less (almost no effect)).

As for `COCCOc1cccc(-c2sc3ccc(F)cc3c2-c2c(O)c(C)nn(C)c2=O)c1` [2-271], the “P: chickweed, herbicidal effect (criteria 0-5)” value in the assay with chickweed (setting [3]) is 5 (Herbicidal rate of 90% or more (almost completely withered)). Moreover, the “N: redroot pigweed, herbicidal effect (criteria 0-5)” value in the assay with redroot pigweed (setting [3]) is 3 (Herbicidal rate of 40% or more and less than 70%). Further, the “herbicidal effect rating, B” value in the assay on Japanese bulrush was 0 (Herbicidal rate of 5% or less (almost no effect)). Also, the “K: Italian ryegrass, herbicidal effect (criteria 0-5)” value with Italian ryegrass (setting [3]) is listed as 0 (Herbicidal rate of 5% or less (almost no effect)). In addition, the “herbicidal effect rating, C” value with oval-leafed pondweed is given as 0 (Herbicidal rate of 5% or less (almost no effect)). Moreover, in the assay on barnyard grass [1] (setting [4]), the “herbicidal effect on H: barnyard grass” value is 3 (Herbicidal rate of 40% or more and less than 70%). The “H: barnyard grass, herbicidal effect (criteria 0-5)” value in the assay with barnyard grass [2] (setting [3]) was 0 (Herbicidal rate of 5% or less (almost no effect)). Also, the “I: wild oat, herbicidal effect (criteria 0-5)” value in the assay on wild oat (setting [3]) is 0 (Herbicidal rate of 5% or less (almost no effect)). The “J: blackgrass, herbicidal effect (criteria 0-5)” value in the assay with blackgrass (setting [3]) is 0 (Herbicidal rate of 5% or less (almost no effect)). The “herbicidal effect rating, A: late watergrass” value with late watergrass is 3 (Herbicidal rate of 40% or more and less than 70%). For the same molecule, the “F: southern crabgrass, herbicidal effect (criteria 0-5)” value in the assay with southern crabgrass (setting [3]) is on record as 0 (Herbicidal rate of 5% or less (almost no effect)). Further, the “herbicidal effect on D: Chinese sprangletop” value in the assay with Chinese sprangletop (setting [4]) was 0 (Herbicidal rate of 5% or less (almost no effect)). Besides, the “herbicidal effect on E: rice flat sedge” value in the assay with rice flat sedge (setting [4]) was 3 (Herbicidal rate of 40% or more and less than 70%). The “O: lambsquarters, herbicidal effect (criteria 0-5)” value in the assay with lambsquarters (setting [3]) is recorded as 0 (Herbicidal rate of 5% or less (almost no effect)). In addition, the “M: velvetleaf, herbicidal effect (criteria 0-5)” value with velvetleaf (setting [3]) was 0 (Herbicidal rate of 5% or less (almost no effect)). In addition, in the assay with windgrass (setting [3]), the “L: windgrass, herbicidal effect (criteria 0-5)” value is reported as 0 (Herbicidal rate of 5% or less (almost no effect)). In the assay on green foxtail (setting [3]), the “G: green foxtail, herbicidal effect (criteria 0-5)” value is 0 (Herbicidal rate of 5% or less (almost no effect)).

On to `Cc1ccc(-c2sc3c(Cl)cccc3c2-c2c(O)c(C)nn(C)c2=O)cc1` [4-019], for which, in the assay on chickweed (setting [5]), the “herbicidal effect on P: chickweed (evaluation grade 0-5)” value is given as 5 (Herbicidal rate of 90% or more (almost completely withered)). Further, the “herbicidal effect on N: redroot pigweed (evaluation grade 0-5)” value in the assay with redroot pigweed (setting [5]) is 5 (Herbicidal rate of 90% or more (almost completely withered)). Further, the “herbicidal effect rating, B” value with Japanese bulrush is 0 (Herbicidal rate of 5% or less (almost no effect)). Moreover, in the assay with Italian ryegrass (setting [5]), the “herbicidal effect on K: Italian ryegrass (evaluation grade 0-5)” value is 3 (Herbicidal rate of 40% or more and less than 70%). Besides, the “herbicidal effect rating, C” value with oval-leafed pondweed is listed as 0 (Herbicidal rate of 5% or less (almost no effect)). Also, the “herbicidal effect on barnyard grass (H)” value in the assay with barnyard grass [1] (320 g/ha) is 3 (Herbicidal rate of 40% or more and less than 70%). The “herbicidal effect on H: barnyard grass (evaluation grade 0-5)” value with barnyard grass [2] (setting [5]) was 0 (Herbicidal rate of 5% or less (almost no effect)). The “herbicidal effect on I: wild oat (evaluation grade 0-5)” value with wild oat (setting [5]) was 3 (Herbicidal rate of 40% or more and less than 70%). In addition, the “herbicidal effect on J: blackgrass (evaluation grade 0-5)” value with blackgrass (setting [5]) is recorded as 0 (Herbicidal rate of 5% or less (almost no effect)). The “herbicidal effect rating, A: late watergrass” value in the assay on late watergrass is 4 (Herbicidal rate of 70% or more and less than 90%). Besides, the “herbicidal effect on F: southern crabgrass (evaluation grade 0-5)” value in the assay with southern crabgrass (setting [5]) is 0 (Herbicidal rate of 5% or less (almost no effect)). For the same molecule, the “herbicidal effect on Chinese sprangletop (D)” value with Chinese sprangletop (320 g/ha) was 4 (Herbicidal rate of 70% or more and less than 90%). In addition, the “herbicidal effect on rice flat sedge (E)” value in the assay on rice flat sedge (320 g/ha) was 5 (Herbicidal rate of 90% or more (almost completely withered)). The “herbicidal effect on O: lambsquarters (evaluation grade 0-5)” value with lambsquarters (setting [5]) was 1 (Herbicidal rate of 5% or more and less than 20%). In addition, the “herbicidal effect on R: persian speedwell (evaluation grade 0-5)” value in the assay on persian speedwell (foliage application after 14-day growth) was 4 (Herbicidal rate of 70% or more and less than 90%). Further, in the assay with velvetleaf (setting [5]), the “herbicidal effect on M: velvetleaf (evaluation grade 0-5)” value is listed as 5 (Herbicidal rate of 90% or more (almost completely withered)). Besides, the “herbicidal effect on L: windgrass (evaluation grade 0-5)” value with windgrass (setting [5]) is 1 (Herbicidal rate of 5% or more and less than 20%). In the assay with green foxtail (setting [5]), the “herbicidal effect on G: green foxtail (evaluation grade 0-5)” value is 1 (Herbicidal rate of 5% or more and less than 20%).
